Measurements from patent US5130300A, “Method for enhancing growth of mammary parenchyma” (Monsanto Company, priority 1987, dated 1992).

What was measured:
[1] = tested on: Quarter-Udders in Pregnant Beef Cows; experiment: Intramammary infusion of hEGF, quarter-udder weights and DNA (Examples 7-8); type: in vivo, cross-bred beef cows
Source text: 24 pregnant, non-lactating, cross-bred beef cows within their last 40-80 days of gestation were randomly divided into 3 treatment groups with 8 animals in each group.

[2] = tested on: pregnant Holstein heifers; experiment: Intramammary infusion until parturition, milk production in first 105 days of lactation (Example 13); type: in vivo; conditions: one animal, 250 micrograms hEGF every third day only until 15 days before parturition
Experimental: 48 pregnant Holstein heifers within their last 40 days (approximately) of gestation were housed in a free-stall facility, fed a ration of alfalfa hay and pelleted concentrate, and administered 10 ml of an excipient into each quarter-udder by intramammary infusion through the streak canal every third day until parturition with the exception of one animal which was treated with human EGF as described in this Example only until 15 days before parturition. Infusions were carried out using a 3.2 centimeter long, approximately 12 gauge, blunt-tipped plastic teat infusion cannula obtained from Jorgensen Laboratories, Loveland, Colo. […] In each animal, all 4 quarter-udders received the same treatment. Each udder was sprayed with 70% ethanol and wiped dry prior to treatment and dipped with an iodine solution following treatment. At parturition, 4 animals from each treatment group were sacrificed and their mammary glands were removed for analysis. The other 8 animals from each treatment group were milked normally each a.m. and p.m. for the first 105 days of lactation.

[3] = tested on: Quarter-Udders in Pregnant Beef Cows; experiment: Intramammary infusion of hEGF or mEGF, quarter-udder weights and DNA (Examples 1-2); type: in vivo, cross-bred beef cows; conditions: 25 micrograms per infusion, days 1,3,5,7,9, Freund's emulsion
Experimental: 12 pregnant, non-lactating, cross-bred beef cows within their last 40-80 days of gestation were housed in a free-stall facility, fed a ration of alfalfa hay and pelleted concentrate, and administered 10 ml of an excipient (Freund's Incomplete Adjuvant emulsified with an equal volume of 0.9% sterile saline) into each quarter-udder by intramammary infusion through the streak canal on days 1, 3, 5, 7 and 9 of this study. Infusions were carried out using a 3.2 centimeter long, approximately 12 gauge, blunt-tipped plastic teat infusion cannula obtained from Jorgensen Laboratories, Loveland, Colo. Because front and rear udder halves are not of equal size, treatment vs. control comparisons were made between laterally opposite quarters, i.e., front right vs. front left and rear right vs. rear left. Treatments were randomly assigned to right or left udder-halves, with the contralateral half serving as its control. […] (the other 6 animals).
Prior to treatment, each animal was teatdipped for 3 consecutive days and each teat was pre-cleaned with 70% ethanol in water on the day of treatment. On day 14 the cows were sacrificed and their mammary glands excised. Each udder (milked out if necessary) was skinned, divided along the median suspensory ligament and then into front right, front left, rear right and rear left udder quarters. Each quarter-udder was ground, a representative 200 gm sample was homogenized with 4 times its volume of water, and the total homogenate volume of each was measured.
To determine dry weight of each quarter-udder, three 10 ml aliquots of a 1:5 diluted homogenate were placed in pre-weighed pans, dried overnight at 60° and then dried and weighed to a consistent value.
To determine dry fat-free tissue weight of each quarter-udder, three 5 ml aliquots of the undiluted homogenate were extracted by the method of Anderson, 41 J. Anim. Sci. 118 (1975) except that samples were placed in pre-weighed 25×150 mm glass centrifuge tubes and extracted overnight with 10 ml ethanol:ether (3:1), then centrifuged (5 min at 500 rpm) and the supernatant aspirated; an additional 10 ml aliquot of ethanol:ether was added for a second extraction; and the sample was dried under nitrogen until a consistent value was obtained.
DNA in each quarter-udder was determined by the method of Burton, 12B Methods in Enzymol. 163-66 (1968) using an assay solution of 15% trichloroacetic acid (TCA) in 2N HCl. In these determinations, aliquots of gland homogenate were diluted 1:5 with water and rehomogenized. Using triplicate 0.25 ml or 0.5 ml aliquots of these homogenates, each aliquot was mixed with 2 ml of the assay solution. After 30 min, the samples were centrifuged for 10 min at 3000 rpm and the resulting pellets were washed with 2 ml of a 10% solution of TCA in distilled water. After recentrifugation, the resulting pellets were disrupted in 2 ml of 0.5N perchloric acid and heated for 30 min at 70° to extract DNA. Samples were centrifuged and 1 ml of each resulting supernatant was placed in a 12×75 mm tube. After addition of 2 ml of a solution of 1.5 g diphenylamine and 1.5 ml H2 SO4 in 100 ml glacial acetic acid (and 0.1 ml of 1.6% aqueous acetaldehyde per 20 ml reagent just prior to use), the samples were vortexed and incubated overnight at 27°. Calf thymus DNA was the standard.

[4] = tested on: Quarter-Udders in Pregnant Beef Cows; experiment: Intramammary infusion of hEGF, quarter-udder weights and DNA (Examples 3-6); type: in vivo, cross-bred beef cows; conditions: for DNA, % Increase, (A-B)/B / DNA, Mean Increase (A-B) / Dry Fat-Free Weight, % Increase, (A-B)/B / Dry Fat-Free Weight, Mean Increase (A-B) / Dry Weight, % Increase, (A-B)/B / Dry Weight, Mean Increase (A-B) / Wet Weight, % Increase, (A-B)/B / Wet Weight, Mean Increase (A-B): B = excipient only
Source text: 24 pregnant, non-lactating, cross-bred beef cows within their last 40-80 days of gestation were randomly divided into 4 treatment groups with 6 animals in each group.

[5] = Group 1: total of 125 micrograms hEGF
[6] = Group 1: total of 125 micrograms hEGF, B = excipient only
[7] = Group 2: total of 1.25 milligrams hEGF
[8] = Group 2: total of 1.25 milligrams hEGF, B = excipient only
[9] = B = opposite quarter, excipient only
[10] = Group 1: total of 125 micrograms hEGF in Freund's emulsion
[11] = Group 2: total of 125 micrograms hEGF in sesame emulsion
[12] = Group 3: total of 12.5 micrograms hEGF in sesame emulsion
[13] = Group 4: total of 1.25 milligrams hEGF in sesame emulsion

Substance: hEGF: human EGF from G. D. Searle & Co., prepared by expression of recombinant DNA, purity above 90%
- DNA, Treatment Mean [1, 5]: 396.9 mg
- Dry Fat-Free Weight, Treatment Mean [1, 5]: 52.8 g
- Dry Weight, Treatment Mean [1, 5]: 113.0 g
- Wet Weight, Treatment Mean [1, 5]: 363.0 g
- DNA, % Increase, (A-B)/B [1, 6]: 10.6%
- DNA, Mean Increase (A-B) [1, 6]: 38.0 mg
- Dry Fat-Free Weight, % Increase, (A-B)/B [1, 6]: 4.1%
- Dry Fat-Free Weight, Mean Increase (A-B) [1, 6]: 2.1 g
- Dry Weight, % Increase, (A-B)/B [1, 6]: 3.0%
- Dry Weight, Mean Increase (A-B) [1, 6]: 3.3 g
- Wet Weight, % Increase, (A-B)/B [1, 6]: 1.5%
- DNA, Treatment Mean [1, 7]: 344.0 mg
- Dry Fat-Free Weight, Treatment Mean [1, 7]: 63.8 g
- Wet Weight, Treatment Mean [1, 7]: 392.5 g
- Dry Fat-Free Weight, % Increase, (A-B)/B [1, 8]: 3.9%
- Dry Fat-Free Weight, Mean Increase (A-B) [1, 8]: 2.4 g
- Dry Weight, % Increase, (A-B)/B [1, 8]: 5.3%
- Dry Weight, Mean Increase (A-B) [1, 8]: 6.3 g
- Wet Weight, % Increase, (A-B)/B [1, 8]: 1.1%
- Wet Weight, Mean Increase (A-B) [1, 8]: 4.3 g
- Average milk production more than average of the 8 control cows [2]: 9.6 kg milk/day
- Average milk production more than average of the 8 control cows, percent [2]: 34.8%
- DNA, Mean Increase (A-B) [3, 9]: 84.5 mg
- Dry Fat-Free Weight, Mean Increase (A-B) [3, 9]: 4.9 g
- Dry Weight, % Increase, (A-B)/B [3, 9]: 7.7%
- Wet Weight, Mean Increase (A-B) [3, 9]: 32.6 g
- DNA, Treatment Mean ([3]; day 14): 794.5 mg
- Dry Fat-Free Weight, Treatment Mean ([3]; day 14): 63.2 g
- Dry Weight, Treatment Mean ([3]; day 14): 120.0 g
- Wet Weight, Treatment Mean ([3]; day 14): 389.9 g
- DNA, Avg % Increase/Animal ([3]; vs excipient-only quarter): 14.8%
- Dry Fat-Free Weight, Avg % Increase/Animal ([3]; vs excipient-only quarter): 16.1%
- Wet Weight, Avg % Increase/Animal ([3]; vs excipient-only quarter): 12.9%
- DNA, Avg % Increase/Animal [4, 10]: 23.0%
- DNA, Treatment Mean [4, 10]: 723.0 mg
- Dry Fat-Free Weight, Avg % Increase/Animal [4, 10]: 8.3%
- Dry Fat-Free Weight, Treatment Mean [4, 10]: 60.3 g
- Dry Weight, Treatment Mean [4, 10]: 107.2 g
- Wet Weight, Treatment Mean [4, 10]: 364.9 g
- DNA, % Increase, (A-B)/B [4, 10]: 14.9%
- DNA, Mean Increase (A-B) [4, 10]: 94.0 mg
- Dry Fat-Free Weight, % Increase, (A-B)/B [4, 10]: 6.2%
- Dry Fat-Free Weight, Mean Increase (A-B) [4, 10]: 3.5 g
- Dry Weight, % Increase, (A-B)/B [4, 10]: 6.1%
- Dry Weight, Mean Increase (A-B) [4, 10]: 6.2 g
- Wet Weight, % Increase, (A-B)/B [4, 10]: 4.4%
- Wet Weight, Mean Increase (A-B) [4, 10]: 15.4 g
- DNA, Avg % Increase/Animal [4, 11]: 70.0%
- DNA, Treatment Mean [4, 11]: 995.0 mg
- Dry Fat-Free Weight, Avg % Increase/Animal [4, 11]: 15.9%
- Dry Fat-Free Weight, Treatment Mean [4, 11]: 71.0 g
- Dry Weight, Avg % Increase/Animal [4, 11]: 20.2%
- Wet Weight, Avg % Increase/Animal [4, 11]: 10.4%
- Wet Weight, Treatment Mean [4, 11]: 370.2 g
- DNA, % Increase, (A-B)/B [4, 11]: 41.5%
- DNA, Mean Increase (A-B) [4, 11]: 292.0 mg
- Dry Fat-Free Weight, % Increase, (A-B)/B [4, 11]: 3.2%
- Dry Fat-Free Weight, Mean Increase (A-B) [4, 11]: 2.2 g
- Dry Weight, % Increase, (A-B)/B [4, 11]: 9.9%
- Dry Weight, Mean Increase (A-B) [4, 11]: 11.0 g
- Wet Weight, % Increase, (A-B)/B [4, 11]: 3.9%
- Wet Weight, Mean Increase (A-B) [4, 11]: 14.0 g
- DNA, Treatment Mean [4, 12]: 867.6 mg
- Dry Fat-Free Weight, Avg % Increase/Animal [4, 12]: 16.3%
- Dry Fat-Free Weight, Treatment Mean [4, 12]: 79.4 g
- Dry Weight, Avg % Increase/Animal [4, 12]: 7.8%
- Dry Weight, Treatment Mean [4, 12]: 132.4 g
- Wet Weight, Avg % Increase/Animal [4, 12]: 0.6%
- Wet Weight, Treatment Mean [4, 12]: 397.8 g
- Dry Fat-Free Weight, Mean Increase (A-B) [4, 12]: 6.7 g
- Dry Weight, % Increase, (A-B)/B [4, 12]: 4.2%
- Dry Weight, Mean Increase (A-B) [4, 12]: 5.4 g
- DNA, Avg % Increase/Animal [4, 13]: 1.6%
- DNA, Treatment Mean [4, 13]: 733.2 mg
- Dry Fat-Free Weight, Treatment Mean [4, 13]: 81.7 g
- Dry Weight, Treatment Mean [4, 13]: 131.5 g
- Wet Weight, Avg % Increase/Animal [4, 13]: 9.9%
- Wet Weight, Treatment Mean [4, 13]: 391.9 g
- DNA, % Increase, (A-B)/B [4, 13]: 0.5%
- DNA, Mean Increase (A-B) [4, 13]: 4.0 mg
- Dry Fat-Free Weight, Mean Increase (A-B) [4, 13]: 6.6 g
- Dry Weight, Mean Increase (A-B) [4, 13]: 13.6 g
- Wet Weight, Mean Increase (A-B) [4, 13]: 31.7 g
